In patent publication US7732468B2, “3-aryl-6-aryl-[ 1,2,4]triazolo[3,4-b][1,3,4]thiadiazoles and related compounds as activators of caspases and inducers of apoptosis and the use thereof” (Cytovia, Inc., priority 2006, dated 2010):

Legend:
Format in all cases: cell-based
[1] = test system: human Burkitt's lymphoma cell line Namalwa; experiment: Caspase cascade activation in Namalwa cells; details: Burkitts lymphoma cell, 48 h incubation, read-out: caspase potency EC50 Namalwa
Procedure: (§1) Human breast cancer cell lines T-47D, human hepatocellular carcinoma cell line SNU398, human colon carcinoma cell line HCT116, human cancer cell line H11299, human Burkitt's lymphoma cell line Namalwa, human lymphoma cell line Raji, and human B cell lymphoblastoid cell line Ramos were grown according to media component mixtures designated by American Type Culture Collection+10% FCS (Invitrogen Corporation), in a 5% CO2-95% humidity incubator at 37° C. T-47D and H1299 cells were maintained at a cell density between 50 and 80% confluency at a cell density of 0.1 to 0.6×10^6 cells/mL. Cells were harvested at 600×g and resuspended at 0.65×10^6 cells/mL into appropriate media+10% FCS. An aliquot of 22.5 μL of cells was added to a well of a 384-well microtiter plate containing 2.5 μL of a 10% DMSO in RPMI-1640 media solution containing 0.16 to 100 μM of 6-(3,4-dimethoxyphenyl)-3-(2-methoxyphenyl)-[1,2,4]triazolo[3,4-b][1,3,4]thiadiazole or other test compound (0.016 to 10 μM final). An aliquot of 22.5 μL of cells was added to a well of a 384-well microtiter plate containing 2.5 μL of a 10% DMSO in RPMI-1640 media solution without test compound as the control sample. The samples were mixed by agitation and then incubated at 37° C. for 48 h in a 5% CO2-95% humidity incubator. After incubation, the samples were removed from the incubator and 25 μL of a solution containing 14 μM of N-(Ac-DEVD)-N′-ethoxycarbonyl-R110 (SEQ ID No.:1) fluorogenic substrate (Cytovia, Inc.; WO99/18856), 20% sucrose (Sigma), 20 mM DTT (Sigma), 200 mM NaCl (Sigma), 40 mM Na PIPES buffer pH 7.2 (Sigma), and 500 μg/mL lysolecithin (Calbiochem) was added. The samples were mixed by agitation and incubated at room temperature. Using a fluorescent plate reader (Model SPECTRAfluor Plus, Tecan), an initial reading (T=0) was made approximately 1-2 min after addition of the substrate solution, employing excitation at 485 nm and emission at 530 nm, to determine the background fluorescence of the control sample. After the 3 h incubation, the samples were read for fluorescence as above (T=3 h).
(§2) The Relative Fluorescence Unit values (RFU) were used to calculate the sample readings as follows: RFU(T=3h)−Control RFU(T=0)=Net RFU(T=3h)
(§3) The activity of caspase cascade activation was determined by the ratio of the net RFU value for 6-(3,4-dimethoxyphenyl)-3-(2-methoxyphenyl)-[1,2,4]triazolo[3,4-b][1,3,4]thiadiazole (Example I) or other test compound to that of control samples. The EC50 (nM) was determined by a sigmoidal dose-response calculation (Prism 3.0, GraphPad Software Inc.).

[2] = test system: human lymphoma cell line Raji; experiment: Caspase cascade activation in Raji cells; details: RAJ1 cells, 48 h incubation, read-out: caspase potency EC50 RAJ1
Procedure: as §1, §2, §3

[3] = test system: human B cell lymphoblastoid cell line Ramos; experiment: Caspase cascade activation in Ramos cells; details: 48 h incubation, read-out: caspase potency EC50 RAMOS
Procedure: as §1, §2, §3

[4] = test system: human hepatocellular carcinoma cell line SNU398; experiment: Caspase cascade activation in SNU398 cells; details: SNU-398, 48 h incubation, read-out: caspase potency EC50 SNU398
Procedure: as §1, §2, §3

[5] = test system: human colon carcinoma cell line HCT116; experiment: Caspase cascade activation in HCT116 cells; details: HCT-116, 48 h incubation, read-out: caspase potency EC50 HCT116
Procedure: as §1, §2, §3

[6] = test system: Human breast cancer cell lines T-47D; experiment: Caspase cascade activation (Ac-DEVD-R110 fluorogenic substrate) in T-47D cells; details: T47D cells, 48 h incubation, read-out: caspase potency EC50 T47D
Procedure: as §1, §2, §3

## CN(C)c1ccc(-c2nnc3sc(-c4cccc(N(C)C)c4)nn23)cc1 [Entry J1, 3-(4-Dimethylaminophenyl)-6-(3-dimethylaminophenyl)-[1,2,4]triazolo[3,4-b][1,3,4]thiadiazole]
[1]
  EC50: 5.53 µM
[2]
  EC50: > 10 µM
[3]
  EC50: 5.33 µM

## CN(C)c1ccc(-c2nn3c(-c4ccncc4)nnc3s2)cc1 [Entry H1, 6-(4-Dimethylaminophenyl)-3-(pyridine-4-yl)-[1,2,4]triazolo[3,4-b][1,3,4]thiadiazole]
[1]
  EC50: 2.66 µM
[2]
  EC50: 4.94 µM
[3]
  EC50: 3.92 µM

## COc1ccccc1-c1nnc2sc(-c3ccc([N+](=O)[O-])c(OC)c3)nn12 [Entry 10, 6-(3-Methoxy-4-nitrophenyl)-3-(2-methoxyphenyl)-[1,2,4]triazolo[3,4-b][1,3,4]thiadiazole]
[1]
  EC50: > 10 µM
[4]
  EC50: > 10 µM
[5]
  EC50: > 10 µM
[6]
  EC50: > 10 µM

## CCN(CC)c1ccc(-c2nn3c(-c4cccnc4)nnc3s2)cc1 [D, 6-(4-Diethylaminophenyl)-3-(pyridin-3-yl)-[1,2,4]triazolo[3,4-b][1,3,4]thiadiazole]
[1]
  EC50: 2.48 µM
[2]
  EC50: 5.07 µM
[3]
  EC50: 1.1 µM

## COc1ccccc1-c1nnc2sc(-c3ccc4cc[nH]c4c3)nn12 [Entry 13, 6-(1H-indol-6-yl)-3-(2-methoxyphenyl)-[1,2,4]triazolo[3,4-b][1,3,4]thiadiazole]
[1]
  EC50: 0.155 µM
[4]
  EC50: 0.146 µM
[5]
  EC50: 0.663 µM
[6]
  EC50: 0.967 µM

## COc1ccccc1-c1nnc2sc(-c3ccc(OC)c([N+](=O)[O-])c3)nn12 [Entry 6, 6-(4-Methoxy-3-nitrophenyl)-3-(2-methoxyphenyl)-[1,2,4]triazolo[3,4-b][1,3,4]thiadiazole]
[1]
  EC50: > 10 µM
[4]
  EC50: > 10 µM
[5]
  EC50: > 10 µM
[6]
  EC50: > 10 µM

## COc1ccc(-c2nn3c(-c4ccccc4Cl)nnc3s2)cc1 [Z, 3-(2-Chlorophenyl)-6-(4-methoxyphenyl)-[1,2,4]triazolo[3,4-b][1,3,4]thiadiazole]
[1]
  EC50: 0.963 µM
[2]
  EC50: 1.56 µM
[3]
  EC50: 1.02 µM

## COc1cc(-c2nnc3sc(-c4ccc(C)c([N+](=O)[O-])c4)nn23)cc(OC)c1OC [Entry 1, 6-(4-Methyl-3-nitrophenyl)-3-(3,4,5-trimethoxyphenyl)-[1,2,4]triazolo[3,4-b][1,3,4]thiadiazole]
[1]
  EC50: > 10 µM
[4]
  EC50: > 10 µM
[5]
  EC50: > 10 µM
[6]
  EC50: > 10 µM

## CCN(CC)c1ccc(-c2nn3c(-c4cccc(C)c4)nnc3s2)cc1 [G, 6-(4-Diethylaminophenyl)-3-m-tolyl-[1,2,4]triazolo[3,4-b][1,3,4]thiadiazole]
[1]
  EC50: 2.35 µM
[2]
  EC50: 2.93 µM
[3]
  EC50: 2.24 µM

## COc1ccccc1-c1nnc2sc(-c3ccc(C)c([N+](=O)[O-])c3)nn12 [Entry 4, 3-(2-Methoxyphenyl)-6-(4-methyl-3-nitrophenyl)-[1,2,4]triazolo[3,4-b][1,3,4]thiadiazole]
[1]
  EC50: > 10 µM
[4]
  EC50: > 10 µM
[5]
  EC50: > 10 µM
[6]
  EC50: > 10 µM

## CCc1nn(C)c(-c2nnc3sc(-c4ccc(OC)cc4)nn23)c1Cl [B, 3-(4-Chloro-3-ethyl-1-methyl-1H-pyrazol-5-yl)-6-(4-methoxyphenyl)-[1,2,4]triazolo[3,4-b][1,3,4]thiadiazole]
[1]
  EC50: 5.63 µM
[2]
  EC50: 5.4 µM
[4]
  EC50: > 10 µM
[3]
  EC50: 5.3 µM
[5]
  EC50: > 10 µM
[6]
  EC50: > 10 µM

## COc1ccc(-c2nnc3sc(-c4ccc(N(C)C)cc4)nn23)cc1OC [Entry C1, 3-(3,4-Dimethoxyphenyl)-6-(4-dimethylaminophenyl)-[1,2,4]triazolo[3,4-b][1,3,4]thiadiazole]
[1]
  EC50: 5.3 µM
[2]
  EC50: > 10 µM
[3]
  EC50: 5.18 µM

## CCN(CC)c1ccc(-c2nn3c(-c4ccncc4)nnc3s2)cc1 [J, 6-(4-Diethylaminophenyl)-3-(pyridin-4-yl)-[1,2,4]triazolo[3,4-b][1,3,4]thiadiazole]
[1]
  EC50: 0.598 µM
[2]
  EC50: 1.06 µM
[3]
  EC50: 0.524 µM

## COc1ccccc1-c1nnc2sc(-c3cccnc3)nn12 [Entry 11, 3-(2-Methoxyphenyl)-6-(pyridin-3-yl)-[1,2,4]triazolo[3,4-b][1,3,4]thiadiazole]
[1]
  EC50: > 10 µM
[4]
  EC50: > 10 µM
[5]
  EC50: > 10 µM
[6]
  EC50: > 10 µM

## COc1ccccc1-c1nnc2sc(-c3ccc(N4CCOCC4)cc3)nn12 [Entry 9, 3-(2-Methoxyphenyl)-6-(4-morpholinophenyl)-[1,2,4]triazolo[3,4-b][1,3,4]thiadiazole]
[1]
  EC50: 2.38 µM
[4]
  EC50: 2.31 µM
[5]
  EC50: 2.64 µM
[6]
  EC50: 1.27 µM

## COc1cc(-c2nnc3sc(-c4ccc5nc[nH]c5c4)nn23)cc(OC)c1OC [Entry 3, 6-(1H-Benzo[d]imidazol-6-yl)-3-(3,4,5-trimethoxyphenyl)-[1,2,4]triazolo[3,4-b][1,3,4]thiadiazole]
[1]
  EC50: > 10 µM
[4]
  EC50: > 10 µM
[5]
  EC50: > 10 µM
[6]
  EC50: > 10 µM

## COc1ccc(-c2nn3c(-c4n[nH]c5c4CCC5)nnc3s2)cc1OC [Entry L1, 6-(3,4-Dimethoxyphenyl)-3-(1,4,5,6-tetrahydrocyclopenta[c]pyrazol-3-yl)-[1,2,4]triazolo[3,4-b][1,3,4]thiadiazole]
[1]
  EC50: 1.31 µM
[2]
  EC50: 2.69 µM
[3]
  EC50: 1.74 µM
[5]
  EC50: 2.76 µM
[6]
  EC50: 2.43 µM

## COc1cc(-c2nnc3sc(-c4ccc(N5CCOCC5)cc4)nn23)cc(OC)c1OC [Entry 8, 6-(4-Morpholinophenyl)-3-(3,4,5-trimethoxyphenyl)-[1,2,4]triazolo[3,4-b][1,3,4]thiadiazole]
[1]
  EC50: > 10 µM
[4]
  EC50: > 10 µM
[5]
  EC50: > 10 µM
[6]
  EC50: > 10 µM

## COc1cc(-c2nnc3sc(-c4ccncc4)nn23)cc(OC)c1OC [X, 6-(Pyridin-4-yl)-3-(3,4,5-trimethoxyphenyl)-[1,2,4]triazolo[3,4-b][1,3,4]thiadiazole]
[1]
  EC50: > 10 µM
[2]
  EC50: > 10 µM
[4]
  EC50: 2.01 µM
[3]
  EC50: > 10 µM
[5]
  EC50: 2.36 µM
[6]
  EC50: 3.61 µM

## COc1cc(-c2nnc3sc(-c4cccs4)nn23)cc(OC)c1OC [Y, 6-(Thiophen-2-yl)-3-(3,4,5-trimethoxyphenyl)-[1,2,4]triazolo[3,4-b][1,3,4]thiadiazole]
[1]
  EC50: > 10 µM
[2]
  EC50: > 10 µM
[4]
  EC50: > 10 µM
[3]
  EC50: > 10 µM
[5]
  EC50: > 10 µM
[6]
  EC50: 5.44 µM

## COc1cc(-c2nnc3sc(-c4ccc(C)c(N)c4)nn23)cc(OC)c1OC [Entry 2, 6-(3-Amino-4-methylphenyl)-3-(3,4,5-trimethoxyphenyl)-[1,2,4]triazolo[3,4-b][1,3,4]thiadiazole]
[1]
  EC50: 0.626 µM
[4]
  EC50: 0.645 µM
[5]
  EC50: 1.31 µM
[6]
  EC50: 1.62 µM

## COc1ccccc1-c1nnc2sc(-c3ccc4[nH]ncc4c3)nn12 [Entry 12, 6-(1H-indazol-5-yl)-3-(2-methoxyphenyl)-[1,2,4]triazolo[3,4-b][1,3,4]thiadiazole]
[1]
  EC50: 0.649 µM
[4]
  EC50: 0.571 µM
[5]
  EC50: 1.17 µM
[6]
  EC50: 1.18 µM

## COc1cc(-c2nnc3sc(-c4ccccc4)nn23)cc(OC)c1OC [W, 6-Phenyl-3-(3,4,5-trimethoxyphenyl)-[1,2,4]triazolo[3,4-b][1,3,4]thiadiazole]
[1]
  EC50: > 10 µM
[2]
  EC50: > 10 µM
[4]
  EC50: > 10 µM
[3]
  EC50: > 10 µM
[5]
  EC50: > 10 µM
[6]
  EC50: 5.04 µM
